Legend:
WT N2 animal [1] = test: salt chemotaxis learning with tyramine/octopamine, WT N2; type: in vivo, C. elegans; details: 10 μM TA or OA or both in conditioning solutions or test plate agar
WT N2 animal [2] = test: salt chemotaxis with tyramine/octopamine, WT N2; type: in vivo, C. elegans; details: 10 μM TA or OA or both in conditioning solutions or test plate agar

| SMILES | effect on SCL (learning index) (WT N2 animal [1]) | effect on salt chemotaxis (WT N2 animal [2]) |
| --- | --- | --- |
| NCCc1ccc(O)cc1 [TA, tyramine] | no obvious impact | no obvious impact |
| NCC(O)c1ccc(O)cc1 (stereo not shown) [OA, octopamine] | no obvious impact | no obvious impact |
